Literature values, collected in US20260265270A1 (priority 2023, published 2026).

How the values were obtained:
[1] = tested on: IL-23 secreted by monocytes; settings: after administration of the inhibitor
IL-2 secreted by T cells = settings: after administration of the inhibitor

For `COc1ccc(C[C@H](NC(=O)[C@H](C)NC(=O)CN2CCOCC2)C(=O)N[C@@H](Cc2ccccc2)C(=O)C2(C)CO2)cc1` (stereo in doubt) [ONX0914], which “IL-23 secreted by monocytes” value [1] is on record?
The value was “decrease significantly”.

What about the “IL-2 secreted by T cells” value (IL-2 secreted by T cells) of the same compound?
The value was “decrease significantly”.
